Results: ChEMBL document CHEMBL5154637, “Peptidomimetic α-Acyloxymethylketone Warheads with Six-Membered Lactam P1 Glutamine Mimic: SARS-CoV-2 3CL Protease Inhibition, Coronavirus Antiviral Activity, and in Vitro Biological Stability” (J Med Chem, 2022)

Key:
[1] = Apparent permeability from basolateral to apical side in human Caco-2 cells at 2 uM with pH 7.4 incubated for 2 hrs by LC-MS analysis; assay type: ADME, cell-based; settings: for permeability: caco-2, pH 7.4, 2 h, 2 µM; for Papp B→A at 2 h, 2 µM: Caco-2, pH 7.4
[2] = Dissociation constant, pKa of the compound; assay type: physicochemical
[3] = Antiviral activity against Human coronavirus OC43 infected in human Huh-7 cells assessed as reduction in virus-induced cytopathic effect incubated for 7 days by Celltiter-Glo assay; assay type: functional, cell-based; settings: Betacoronavirus 1, OC43, Huh-7, 168 h
Human coronavirus 229E = assay: Antiviral activity against Human coronavirus 229E infected in human MRC5 cells assessed as reduction in virus-induced cytopathic effect incubated for 3 days by Celltiter-Glo assay; assay type: functional, organism-based; settings: MRC5, 72 h
in vitro [4] = settings: chlorocebus sabaeus, Vero E6 cells
[5] = Cytotoxicity against human MRC5 cells assessed as reduction in cell viability incubated for 24 hrs by Celltiter-glo luminescent cell viability assay; assay type: toxicity, cell-based
[6] = Metabolic stability in CD-1 mouse liver microsomes assessed as half life at 1 uM measured upto 60 mins in absence of NADPH by LC-MS/MS analysis; assay type: ADME, Microsome
in vitro [7] = settings: human, A549 cells
[8] = Metabolic stability in CD-1 mouse Hepatocytes assessed as half life at 3 uM measured upto 90 mins by LC-MS/MS analysis; assay type: ADME, cell-based, Hepatocyte; settings: for half-life at 3 µM: CD-1, mouse
[9] = Cytotoxicity against human Huh-7 cells assessed as reduction in cell viability incubated for 24 hrs by Celltiter-glo luminescent cell viability assay; assay type: toxicity, cell-based
[10] = Lipophilicity, log D of the compound at phosphate buffer pH 7.4 by shake flask method based LC-MS/MS analysis; assay type: physicochemical
[11] = Microsomal stability in CD-1 mouse liver microsomes assessed as half life at 1 uM measured upto 60 mins in presence of NADPH by LC-MS/MS analysis; assay type: ADME, Microsome; settings: for Stability: mouse, microsomes, 1 h, 1 µM; for half-life at 1 µM: CD-1, mouse, liver microsomes
[12] = Stability in CD-1 mouse plasma assessed as half life at 2 uM measured upto 120 mins by LC-MS/MS analysis; assay type: ADME, cell-free
SARS-CoV-2 = assay: microbe, parasite or virus in culture; settings: Severe acute respiratory syndrome coronavirus 2, Vero C1008, 48 h
[13] = target: Replicase polyprotein 1ab (Severe acute respiratory syndrome coronavirus 2, UniProt P0DTD1); assay: Inhibition of SARS-CoV-2 3CL protease incubated for 30 mins by FRET assay
Cathepsin S [14] = target: T1, Cathepsin S (Homo sapiens, UniProt P25774); assay: Inhibition of human cathepsin S at 1 uM incubated for 30 mins by fluorometric analysis
Target sequence in this assay (P25774 115-331 limits assumed): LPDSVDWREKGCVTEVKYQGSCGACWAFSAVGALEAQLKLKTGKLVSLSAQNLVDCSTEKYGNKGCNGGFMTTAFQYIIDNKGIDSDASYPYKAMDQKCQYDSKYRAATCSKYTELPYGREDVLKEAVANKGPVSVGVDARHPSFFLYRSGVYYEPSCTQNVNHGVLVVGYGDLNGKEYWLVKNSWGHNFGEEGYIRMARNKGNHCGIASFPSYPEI

Cathepsin B [15] = target: T2, Cathepsin B (Homo sapiens, UniProt P07858); assay: Inhibition of human cathepsin B at 1 uM incubated for 30 mins by fluorometric analysis
[16] = Selectivity index, ratio of CC50 for cytotoxicity against human A549 cells assessed as reduction in cell viability to EC50 for antiviral activity against SARS-CoV-2 3CL protease; assay type: toxicity, cell-based; settings: read-out: Ratio CC50/EC50
Cathepsin S [17] = target: T1, Cathepsin S; assay: Inhibition of human cathepsin S incubated for 30 mins by fluorometric analysis
Target sequence in this assay (P25774 whole entry): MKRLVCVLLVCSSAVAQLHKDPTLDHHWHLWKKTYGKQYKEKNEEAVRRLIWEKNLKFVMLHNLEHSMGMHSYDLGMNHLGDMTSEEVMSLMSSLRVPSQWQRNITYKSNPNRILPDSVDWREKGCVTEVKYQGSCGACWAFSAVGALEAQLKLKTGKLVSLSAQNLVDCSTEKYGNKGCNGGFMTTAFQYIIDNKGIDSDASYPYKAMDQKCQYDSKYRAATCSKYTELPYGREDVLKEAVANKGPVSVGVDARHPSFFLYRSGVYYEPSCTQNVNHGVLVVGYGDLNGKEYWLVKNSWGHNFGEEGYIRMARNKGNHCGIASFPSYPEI

Cathepsin B [18] = target: T2, Cathepsin B; assay: Inhibition of human cathepsin B incubated for 30 mins by fluorometric analysis
[19] = Selectivity index, ratio of CC50 for cytotoxicity against African green monkey VeroE6 cells assessed as reduction in cell viability to EC50 for antiviral activity against SARS-CoV-2 3CL protease; assay type: toxicity, cell-based; settings: read-out: Ratio CC50/EC50
[20] = Metabolic stability in human plasma measured at 2 hrs by LC-MS analysis; assay type: ADME, cell-free; settings: read-out: Stability
[21] = Stability of compound in glutathione at pH 7.4 after 24 hrs by LC-MS analysis; assay type: physicochemical; settings: read-out: Stability
[22] = Metabolic stability in human plasma assessed as half life measured upto 2 hrs by LC-MS analysis; assay type: ADME, cell-free

Row | Structure (SMILES) | pKa [2] | EC50 [3] [nM] | EC50 (Human coronavirus 229E) [nM] | CC50 at 24 h (in vitro [4]) [nM] | CC50 at 24 h [5] [nM] | CC50 at 24 h (in vitro [7]) [nM] | CC50 at 24 h [9] [nM] | EC50 (SARS-CoV-2) [nM] | IC50 [13] [nM] | inhibition (Cathepsin S [14]) [%] | inhibition (Cathepsin B [15]) [%] | remaining at 2 h [20] [%] | also measured
1 | COc1cccc2[nH]c(C(=O)N[C@@H](CC(C)C)C(=O)N[C@@H](C[C@@H]3CCCNC3=O)C(=O)COC(=O)c3c(Cl)cccc3Cl)cc12 | 1.26 | 35 | 21 | > 200000 | > 100000 | > 200000 | > 100000 |  |  |  |  |  | permeability [1]: Impermeable; half-life at 1 µM ([6]; CD-1, mouse, liver microsomes): < 180 min; half-life at 3 µM [8]: 2.3 min; logD [10]: > 5.07; Stability [11]: Unstable; half-life at 2 µM [12]: 170 min
2 | COc1cccc2[nH]c(C(=O)N[C@@H](CC(C)C)C(=O)N[C@@H](C[C@@H]3CCCNC3=O)C(=O)COC(=O)c3ccccn3)cc12 | 0.99 |  |  |  |  |  |  | > 10000 | 126 |  |  |  | 
3 | COc1cccc2[nH]c(C(=O)N[C@@H](CC(C)C)C(=O)N[C@@H](C[C@@H]3CCCNC3=O)C(=O)COC(=O)c3c(C)nc(C)nc3C)cc12 | 2 |  |  | > 200000 |  | > 200000 |  |  |  |  |  |  | 
4 | O=C[C@H](C[C@@H]1CCNC1=O)NC(=O)[C@H](CC1CCCCC1)NC(=O)OCc1cccc(Cl)c1 |  |  |  |  |  |  |  |  |  | 99.3 | 72.5 |  | 
5 | COc1cccc2[nH]c(C(=O)N[C@@H](CC(C)C)C(=O)N[C@@H](C[C@@H]3CCCNC3=O)C(=O)COC(=O)C3(C(F)(F)F)CCCCC3)cc12 | 3.4 | 395 | 196 | > 200000 | > 100000 | > 200000 | > 100000 | 600 |  | 84.2 | 38.6 | 97 | selectivity ratio [16]: > 333; IC50 (Cathepsin S [17]): 444 nM; IC50 (Cathepsin B [18]): 2850 nM; selectivity ratio [19]: > 333
6 | COc1cccc2[nH]c(C(=O)N[C@@H](CC(C)C)C(=O)N[C@@H](C[C@@H]3CCCNC3=O)C(=O)COC(=O)c3c(C)nn(C)c3C)cc12 | 2.2 |  |  |  |  |  |  | > 10000 | 71.5 |  |  |  | 
7 | CC(=O)OCC(=O)[C@H](C[C@@H]1CCNC1=O)NC(=O)[C@H](CC(C)C)NC(=O)OCc1cccc(Cl)c1 |  |  |  | > 200000 |  | > 200000 |  | 21500 | 1500 |  |  |  | 
8 | COc1cccc2[nH]c(C(=O)N[C@@H](CC(C)C)C(=O)N[C@@H](C[C@@H]3CCCNC3=O)C(=O)COC(=O)c3c(C)cc(C)nc3C)cc12 | 1.7 | 54 | 48 | > 200000 | > 100000 | > 200000 | > 100000 |  | 19 | 98.1 | 86.7 | 100 | Papp B→A at 2 h, 2 µM [1]: 21.8 ×10⁻⁶ cm/s; remaining at 24 h [21]: > 80%; IC50 (Cathepsin S [17]): 51.5 nM; IC50 (Cathepsin B [18]): 201 nM; half-life at 3 µM [8]: 2.7 min; logD [10]: 4.41; half-life at 1 µM [11]: 1.1 min; half-life at 2 µM [12]: > 289 min
9 | COc1cccc2[nH]c(C(=O)N[C@@H](CC(C)C)C(=O)N[C@@H](C[C@@H]3CCCNC3=O)C(=O)COC(=O)C(C)(C)C#N)cc12 | 2.4 |  |  |  |  |  |  | > 10000 |  |  |  | 0 | half-life [22]: < 15 min
10 | COc1cccc2[nH]c(C(=O)N[C@@H](CC(C)C)C(=O)N[C@@H](C[C@@H]3CCCNC3=O)C(=O)COC(=O)C3(C)OCCCO3)cc12 | 2.7 |  |  |  |  |  |  | > 10000 | 12.5 |  |  |  | 
11 | COc1cccc2[nH]c(C(=O)N[C@@H](CC(C)C)C(=O)N[C@@H](C[C@@H]3CCNC3=O)C(=O)COC(=O)c3c(C(F)(F)F)cc(C)nc3C)cc12 |  | 33 | 13 | > 200000 | > 100000 | > 201000 | 44900 |  |  |  |  |  | Papp B→A at 2 h, 2 µM [1]: 24.3 ×10⁻⁶ cm/s; half-life at 3 µM [8]: 1.9 min; logD [10]: 4.57; half-life at 1 µM [11]: 1.1 min; half-life at 2 µM [12]: > 289 min
12 | COc1cccc2[nH]c(C(=O)N[C@@H](CC(C)C)C(=O)N[C@@H](C[C@@H]3CCCNC3=O)C(=O)COC(=O)C(C)(C)C)cc12 | 5.03 |  |  |  |  |  |  | > 10000 |  |  |  | 100 | 
13 | COc1cccc2[nH]c(C(=O)N[C@@H](CC(C)C)C(=O)N[C@@H](C[C@@H]3CCCNC3=O)C(=O)COC(=O)c3cccnc3)cc12 | 2 |  |  |  |  |  |  | > 10000 |  |  |  | 2 | half-life [22]: < 15 min
14 | COc1cccc2[nH]c(C(=O)N[C@@H](CC(C)C)C(=O)N[C@@H](C[C@@H]3CCCNC3=O)C(=O)COC(=O)c3ccncc3)cc12 | 1.77 |  |  |  |  |  |  | > 10000 | 32.9 |  |  |  | 
15 | COc1cccc2[nH]c(C(=O)N[C@@H](CC(C)C)C(=O)N[C@@H](C[C@@H]3CCCNC3=O)C(=O)CO)cc12 |  |  |  | > 200000 |  | > 200000 |  | 10100 | 19.5 | 60.8 | 26.5 |  | 
16 | COc1cccc2[nH]c(C(=O)N[C@@H](CC(C)C)C(=O)N[C@@H](C[C@@H]3CCCNC3=O)C(=O)COC(=O)C(C)(C)C(F)(F)F)cc12 | 3.2 | 195 | 112 | > 200000 | > 100000 | > 200000 | 94600 | > 5000 |  |  |  | 25 | permeability [1]: Impermeable; Stability ([6]; mouse, microsomes, 1 h, 1 µM): Unstable; Stability ([8]; mouse, 1.5 h, 3 µM): Unstable; logD [10]: 4.89; Stability [11]: Unstable; half-life [22]: 67 min; half-life at 2 µM [12]: 11.6 min
17 | COc1cccc2[nH]c(C(=O)N[C@@H](CC(C)C)C(=O)N[C@@H](C[C@@H]3CCCNC3=O)C(=O)COC(=O)c3c(C(F)(F)F)cccc3C(F)(F)F)cc12 | 1.9 | 47 | 29 | > 200000 | > 100000 | > 200000 | 94600 | 160 |  | 96.8 | 91.3 | 100 | selectivity ratio [16]: > 1250; IC50 (Cathepsin S [17]): 116 nM; IC50 (Cathepsin B [18]): 464 nM; selectivity ratio [19]: > 1250
18 | COc1cccc2[nH]c(C(=O)N[C@@H](CC(C)C)C(=O)N[C@@H](C[C@@H]3CCCNC3=O)C(=O)COC(=O)c3ccccc3)cc12 | 4.2 |  |  |  |  |  |  | > 10000 |  | 41 | 16.2 | 67 | half-life [22]: 209 min
